Results on nine molecules are retold here after patent publication US10626103B2, “Inhibitor of lysine specific demethylase-1” (CELGENE QUANTICEL RESEARCH, INC., priority 2014, dated 2020).

For assay [1], the target named is full-length human LSD1 (Homo sapiens (Human), UniProt O60341). Put plainly: In vitro enzyme inhibition assay LSD-1 (TR-FRET). Conditions: H3K4me1-biotin peptide. Format: biochemical. The method in brief:
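Demethylase activity of full-length human LSD1 was detected by TR-FRET after 1 hour incubation at room temperature. Excitation was at 320 nm, with emission at 615 nm and 665 nm. IC50 values were derived from the inhibition data.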
In general terms: TR-FRET usually uses a lanthanide donor and a delayed reading to cut background.

Assay [2] has as its system CD11b expression in THP-1 (AML) cells. Put plainly: LSD1 CD11b cellular assay (flow cytometry). Format: cell-based. Conditions: Homo sapiens, 96 h, THP-1 cells, 4 days. The method in brief: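 THP-1 cells were exposed to serially diluted compounds (0.2% DMSO final) for 4 days at 37 °C. CD11b expression was measured by flow cytometry with DAPI staining. The percent of CD11b-positive cells per concentration gave the IC50 curve.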
For orientation: A flow cytometer gives signals particle by particle.

Assay [3] concerns Kasumi-1 AML cancer cell line. Put plainly: Kasumi-1 AML cell line proliferation assay (Cell-MTS assay). Format: cell-based. Conditions: Homo sapiens, Kasumi-1 cells, 168 hours. The text has this:
Colorimetric cellular assay to assess the ability of LSD-1 small molecule inhibitors to effect the proliferation of the established AML cancer cell line Kasumi-1.
This Cell-MTS assay is a 7-day plate based colorimetric assay which quantifies the amount of newly generated NADH in the presence and absence of test compound. These NADH levels are used as a proxy for the quantification of cancer cell proliferation.
The established cancer cell line Kasumi-1 with a verified p53 mutation were purchased from American Type Culture Collection (ATCC) and routinely passaged according to ATCC published protocols. For routine assay these cells were seeded at a density of 20,000 cells per 96-well. 24 hours after plating, cells received an 11 point dilution of test compound with final concentration ranges from 100 LM to 2.0 nM. Cells are incubated in the presence of compound for 168 hours at 37° C., 5% CO2. At the end of this compound incubation period, 80 μl of media is removed and 20 μL of CellTiter 96® AQueous Non-Radioactive Cell Proliferation Assay solution (Promega) is added. The cells are incubated until the OD490 is >0.6. IC50 values are calculated using the IDBS XLfit software package and include background subtracted OD490 values and normalization to DMSO controls.
Table 5 provides the Kasumi-1 cellular IC50 values of various substituted heterocyclic compounds disclosed herein.
For orientation: Formazan colour is commonly taken as a measure of viable cells.

Some results are limits rather than exact numbers.

One may read the IC50 as the concentration at which inhibition is half-maximal. Low values mean greater potency, high ones weaker potency.

As for `COc1ccc(-n2c(-c3ccc(C#N)c(F)c3)nc(C(=O)N3CC[C@H](N)C3)c2C)cc1` [Example 14, 4-[4-[(3S)-3-aminopyrrolidine-1-carbonyl]-1-(4-methoxyphenyl)-5-methylimidazol-2-yl]-2-fluorobenzonitrile], the figures for the concentration for half-maximal inhibition (IC50) in assay [1], in assay [2] and in assay [3] were under 0.1 µM, under 0.1 µM and at most 0.1 µM, respectively.
`COc1ccc(-n2c(-c3ccc(C#N)c(F)c3)nc(C(=O)N3CC[C@H](N)C3)c2C)cc1F` [Example 18, 4-[4-[(3S)-3-aminopyrrolidine-1-carbonyl]-1-(3-fluoro-4-methoxyphenyl)-5-methylimidazol-2-yl]-2-fluorobenzonitrile] came in with an IC50 in assay [3] of at most 0.1 µM.
As to `CN[C@H]1CCN(C(=O)c2nc(-c3ccc(C#N)c(F)c3)n(-c3ccc(OC)c(F)c3)c2C)C1` [Example 64, 2-Fluoro-4-[1-(3-fluoro-4-methoxyphenyl)-5-methyl-4-[(3S)-3-(methylamino)pyrrolidine-1-carbonyl]imidazol-2-yl]benzonitrile], the figures for the IC50 in assay [1], in assay [2] and in assay [3] were under 0.1 µM, under 0.1 µM and at most 0.1 µM, respectively.
With `COc1ccc(-n2c(-c3ccc(C#N)c(F)c3)nc(C(=O)N3CCC[C@@H](N)C3)c2F)cc1F` [Example 67, 4-[4-[(3R)-3-Aminopiperidine-1-carbonyl]-5-fluoro-1-(3-fluoro-4-methoxyphenyl)imidazol-2-yl]-2-fluorobenzonitrile], the IC50 in assay [1] was under 0.1 µM; in assay [2], under 0.1 µM; in assay [3] it was at most 0.1 µM.
On to `CN[C@@H]1CCCN(C(=O)c2nc(-c3ccc(C#N)c(F)c3)n(-c3ccc(OC)cc3)c2C)C1` [Example 70, 2-Fluoro-4-[1-(4-methoxyphenyl)-5-methyl-4-[(3R)-3-(methylamino)piperidine-1-carbonyl]imidazol-2-yl]benzonitrile], for which the figures for the 50% inhibitory concentration (IC50) in assay [1], in assay [2] and in assay [3] were under 0.1 µM, under 0.1 µM and at most 0.1 µM, respectively.
On to `Cn1nc2ccc(-n3c(-c4ccc(C#N)c(F)c4)nc(C(=O)N4CCC[C@@H](N)C4)c3Cl)cc2c1Cl` [Example 76, 4-[4-[(3R)-3-Aminopiperidine-1-carbonyl]-5-chloro-1-(3-chloro-2-methylindazol-5-yl)imidazol-2-yl]-2-fluorobenzonitrile], for which the IC50 in assay [1] is under 0.1 µM; in assay [2] it was under 0.1 µM; in assay [3], at most 0.1 µM.
In turn, `COc1ccc(-n2c(-c3ccc(C#N)c(F)c3)nc(C(=O)N3CC(CN)C3)c2C)cc1F` [Example 88, 4-[4-[3-(Aminomethyl)azetidine-1-carbonyl]-1-(3-fluoro-4-methoxyphenyl)-5-methylimidazol-2-yl]-2-fluorobenzonitrile] displayed a half-inhibitory concentration (IC50) in assay [3] of at most 0.1 µM.
The molecule `Cc1c(C(=O)N2CC[C@H](N(C)C)C2)nc(-c2ccc(C#N)c(F)c2)n1-c1ccc2nn(C)cc2c1` [Example 94, 4-[4-[(3S)-3-(Dimethylamino)pyrrolidine-1-carbonyl]-5-methyl-1-(2-methylindazol-5-yl)imidazol-2-yl]-2-fluorobenzonitrile] displayed an IC50 in assay [3] of at most 0.1 µM.
Regarding `Cc1c(C(=O)N2CC[C@H](N(C)C)C2)nc(-c2ccc(C#N)c(F)c2)n1-c1ccc2nn(C)c(Cl)c2c1` [Example 96, 4-[1-(3-Chloro-2-methylindazol-5-yl)-4-[(3S)-3-(dimethylamino)pyrrolidine-1-carbonyl]-5-methylimidazol-2-yl]-2-fluorobenzonitrile], the 50% inhibitory concentration (IC50) was under 0.1 µM in assay [1], under 0.1 µM in assay [2] and at most 0.1 µM in assay [3].
